Data: article PMC8213057, “Targeting ALK2: An Open Science Approach to Developing Therapeutics for the Treatment of Diffuse Intrinsic Pontine Glioma” (Journal of Medicinal Chemistry, 2020)

What was measured:
BRAF = target: T1, BRAF (Homo sapiens, UniProt P15056); assay: 375-member kinase panel; format: biochemical; details: Run 1, Run 2; for % enzyme activity: 1 μM; for remaining activity at 1 µM: read-out: % enzyme activity, 1 μM
T1 construct: purchased Reaction Biology Corporation

CK1a1L = target: T2, CK1a1L (Homo sapiens, UniProt Q8N752); details: 1 μM; Run 1, Run 2
T2 sequence (Q8N752 1-337): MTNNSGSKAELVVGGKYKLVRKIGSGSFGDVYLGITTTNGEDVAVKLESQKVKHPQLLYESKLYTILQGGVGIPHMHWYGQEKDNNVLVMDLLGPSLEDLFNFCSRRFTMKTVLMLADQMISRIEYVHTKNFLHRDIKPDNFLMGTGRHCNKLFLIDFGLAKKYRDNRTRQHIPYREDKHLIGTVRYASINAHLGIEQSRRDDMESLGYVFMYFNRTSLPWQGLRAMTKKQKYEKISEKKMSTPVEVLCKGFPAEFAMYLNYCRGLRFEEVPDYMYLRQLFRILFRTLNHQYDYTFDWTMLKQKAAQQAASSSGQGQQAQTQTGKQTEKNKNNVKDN

OSR1/OXSR1 = OSR1/OXSR1 (Homo sapiens, UniProt O95747); assay: biochemical; details: read-out: % enzyme activity, 1 μM; Run 1, Run 2
CYP2C19 = CYP2C19 (Homo sapiens, UniProt P33261); details: read-out: CYP2C19 IC50; human liver microsomes
NEK11 = target: T3, NEK11 (Homo sapiens, UniProt Q8NG66); details: 1 μM; Run 1, Run 2
T3 sequence (Q8NG66 1-645): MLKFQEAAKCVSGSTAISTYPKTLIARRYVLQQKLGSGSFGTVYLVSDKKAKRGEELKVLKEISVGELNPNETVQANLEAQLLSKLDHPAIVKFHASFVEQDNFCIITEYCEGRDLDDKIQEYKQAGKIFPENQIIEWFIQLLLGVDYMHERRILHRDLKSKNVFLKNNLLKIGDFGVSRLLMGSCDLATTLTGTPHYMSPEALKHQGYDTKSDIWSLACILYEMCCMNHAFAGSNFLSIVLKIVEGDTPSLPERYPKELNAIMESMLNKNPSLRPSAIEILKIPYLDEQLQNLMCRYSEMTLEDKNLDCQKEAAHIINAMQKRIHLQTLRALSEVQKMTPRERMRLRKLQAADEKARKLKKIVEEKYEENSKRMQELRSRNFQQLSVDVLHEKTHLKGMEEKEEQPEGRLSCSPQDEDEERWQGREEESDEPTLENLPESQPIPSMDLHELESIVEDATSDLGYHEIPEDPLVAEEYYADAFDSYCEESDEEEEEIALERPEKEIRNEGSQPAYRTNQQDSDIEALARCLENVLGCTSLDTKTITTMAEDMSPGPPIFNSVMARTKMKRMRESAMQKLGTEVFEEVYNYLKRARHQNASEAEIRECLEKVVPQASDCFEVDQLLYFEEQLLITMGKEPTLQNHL

CAMK2a = CAMK2a (Homo sapiens, UniProt Q9UQM7); assay: biochemical; details: read-out: % enzyme activity, 1 μM; Run 1, Run 2
MARK2/PAR-1Ba = MARK2/PAR-1Ba (Homo sapiens, UniProt Q7KZI7); details: 1 μM; Run 1, Run 2
CDK17/cyclin Y (PCTK2) = CDK17/cyclin Y (PCTK2) (Homo sapiens, UniProt Q00537); details: 1 μM; Run 1, Run 2
HCK = HCK (Homo sapiens, UniProt P08631); details: 1 μM; Run 1, Run 2
COT1/MAP3K8 = COT1/MAP3K8 (Homo sapiens, UniProt P41279); assay: biochemical; details: read-out: % enzyme activity, 1 μM; Run 1, Run 2
FGFR2 = FGFR2 (Homo sapiens, UniProt P21802); assay: biochemical; details: read-out: % enzyme activity, 1 μM; Run 1, Run 2
LRRK2 = LRRK2 (Homo sapiens, UniProt Q5S007); assay: biochemical; details: read-out: % enzyme activity, 1 μM; Run 1, Run 2
LOK/STK10 = LOK/STK10 (Homo sapiens, UniProt O94804); details: 1 μM; Run 1, Run 2
HPK1/MAP4K1 = HPK1/MAP4K1 (Homo sapiens, UniProt Q92918); assay: biochemical; details: read-out: % enzyme activity, 1 μM; Run 1, Run 2
CDC7/DBF4 = CDC7/DBF4 (Homo sapiens, UniProt O00311); details: 1 μM; Run 1, Run 2
STK38L/NDR2 = STK38L/NDR2 (Homo sapiens, UniProt Q9Y2H1); details: 1 μM; Run 1, Run 2
CDK8/cyclin C = CDK8/cyclin C (Homo sapiens, UniProt P49336); assay: biochemical; details: read-out: % enzyme activity, 1 μM; Run 1, Run 2
CLK1 = CLK1 (Homo sapiens, UniProt P49759); details: 1 μM; Run 1, Run 2

T1 sequence (P15056 whole entry): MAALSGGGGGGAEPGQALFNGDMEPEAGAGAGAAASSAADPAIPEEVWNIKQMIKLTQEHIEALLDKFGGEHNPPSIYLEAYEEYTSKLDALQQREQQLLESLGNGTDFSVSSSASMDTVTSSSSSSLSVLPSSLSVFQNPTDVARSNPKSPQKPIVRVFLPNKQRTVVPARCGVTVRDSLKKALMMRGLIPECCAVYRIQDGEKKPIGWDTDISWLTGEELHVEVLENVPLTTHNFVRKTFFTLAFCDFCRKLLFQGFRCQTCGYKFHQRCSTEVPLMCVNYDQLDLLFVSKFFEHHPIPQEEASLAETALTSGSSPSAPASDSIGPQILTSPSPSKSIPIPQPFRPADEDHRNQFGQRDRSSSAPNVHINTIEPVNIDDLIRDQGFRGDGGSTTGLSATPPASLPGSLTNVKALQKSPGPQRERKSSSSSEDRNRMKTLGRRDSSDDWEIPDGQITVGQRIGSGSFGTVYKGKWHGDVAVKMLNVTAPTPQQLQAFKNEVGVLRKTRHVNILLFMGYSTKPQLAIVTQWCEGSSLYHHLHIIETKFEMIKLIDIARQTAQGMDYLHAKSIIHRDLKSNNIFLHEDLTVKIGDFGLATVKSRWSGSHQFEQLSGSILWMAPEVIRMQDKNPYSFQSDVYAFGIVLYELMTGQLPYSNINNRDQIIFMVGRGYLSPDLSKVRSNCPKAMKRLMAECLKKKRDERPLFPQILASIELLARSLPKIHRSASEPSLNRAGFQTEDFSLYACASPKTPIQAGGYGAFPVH
OSR1/OXSR1, sequence (O95747 whole entry): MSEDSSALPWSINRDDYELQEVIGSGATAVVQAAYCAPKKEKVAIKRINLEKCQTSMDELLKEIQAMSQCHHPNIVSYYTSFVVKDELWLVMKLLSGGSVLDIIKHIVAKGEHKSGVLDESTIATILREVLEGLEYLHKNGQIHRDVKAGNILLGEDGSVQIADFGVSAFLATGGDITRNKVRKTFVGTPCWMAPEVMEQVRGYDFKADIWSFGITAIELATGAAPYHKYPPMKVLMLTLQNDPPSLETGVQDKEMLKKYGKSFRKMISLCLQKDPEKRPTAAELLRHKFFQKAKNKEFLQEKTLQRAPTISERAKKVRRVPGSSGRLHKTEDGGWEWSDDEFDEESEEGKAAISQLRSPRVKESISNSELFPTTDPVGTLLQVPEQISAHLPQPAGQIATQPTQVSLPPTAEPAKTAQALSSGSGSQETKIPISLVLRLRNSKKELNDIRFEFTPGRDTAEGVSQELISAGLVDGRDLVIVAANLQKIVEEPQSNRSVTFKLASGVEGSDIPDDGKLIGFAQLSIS
CDK8/cyclin C, sequence (P49336 whole entry): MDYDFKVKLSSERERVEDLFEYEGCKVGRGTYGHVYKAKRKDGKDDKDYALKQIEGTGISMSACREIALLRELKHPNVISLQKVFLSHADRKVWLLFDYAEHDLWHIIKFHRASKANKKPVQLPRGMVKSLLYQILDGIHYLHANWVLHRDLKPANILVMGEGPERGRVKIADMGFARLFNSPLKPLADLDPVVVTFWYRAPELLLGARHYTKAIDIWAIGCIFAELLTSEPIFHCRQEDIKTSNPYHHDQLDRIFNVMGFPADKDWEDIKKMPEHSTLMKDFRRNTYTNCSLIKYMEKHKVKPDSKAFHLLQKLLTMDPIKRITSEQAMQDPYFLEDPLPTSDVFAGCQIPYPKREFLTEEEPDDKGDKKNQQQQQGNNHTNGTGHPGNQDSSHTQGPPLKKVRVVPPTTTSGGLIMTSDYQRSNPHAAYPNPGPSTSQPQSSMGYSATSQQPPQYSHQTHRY
CDK8/cyclin C, sequence (P24863 whole entry partner): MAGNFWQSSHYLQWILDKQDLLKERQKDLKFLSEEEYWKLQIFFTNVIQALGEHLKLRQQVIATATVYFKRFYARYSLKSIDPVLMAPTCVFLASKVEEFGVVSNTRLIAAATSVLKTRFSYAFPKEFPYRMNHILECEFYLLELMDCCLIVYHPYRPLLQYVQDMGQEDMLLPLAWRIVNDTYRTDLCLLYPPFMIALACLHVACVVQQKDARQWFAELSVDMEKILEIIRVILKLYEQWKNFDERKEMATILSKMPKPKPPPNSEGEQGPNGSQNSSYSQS
MARK2/PAR-1Ba, sequence (Q7KZI7 whole entry): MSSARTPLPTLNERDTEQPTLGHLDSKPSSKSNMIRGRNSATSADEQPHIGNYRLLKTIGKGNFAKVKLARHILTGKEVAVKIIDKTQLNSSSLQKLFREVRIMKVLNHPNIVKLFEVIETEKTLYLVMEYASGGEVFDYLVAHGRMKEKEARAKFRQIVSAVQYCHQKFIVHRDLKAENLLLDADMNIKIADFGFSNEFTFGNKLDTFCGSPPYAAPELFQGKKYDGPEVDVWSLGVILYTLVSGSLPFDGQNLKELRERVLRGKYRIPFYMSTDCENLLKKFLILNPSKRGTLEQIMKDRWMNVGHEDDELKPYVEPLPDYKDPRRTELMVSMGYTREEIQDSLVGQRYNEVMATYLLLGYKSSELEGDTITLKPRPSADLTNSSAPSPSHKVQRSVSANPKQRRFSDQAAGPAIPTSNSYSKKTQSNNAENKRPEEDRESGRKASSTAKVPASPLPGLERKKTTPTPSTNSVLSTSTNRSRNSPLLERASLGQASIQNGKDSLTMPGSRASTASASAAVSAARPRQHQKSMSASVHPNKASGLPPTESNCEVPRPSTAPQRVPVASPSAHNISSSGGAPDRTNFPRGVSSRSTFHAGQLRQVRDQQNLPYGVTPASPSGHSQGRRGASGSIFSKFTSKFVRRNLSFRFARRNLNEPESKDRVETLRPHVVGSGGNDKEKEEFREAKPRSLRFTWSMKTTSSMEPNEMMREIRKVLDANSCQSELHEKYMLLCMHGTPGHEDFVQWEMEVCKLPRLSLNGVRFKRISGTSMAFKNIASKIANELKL
COT1/MAP3K8, sequence (P41279 whole entry): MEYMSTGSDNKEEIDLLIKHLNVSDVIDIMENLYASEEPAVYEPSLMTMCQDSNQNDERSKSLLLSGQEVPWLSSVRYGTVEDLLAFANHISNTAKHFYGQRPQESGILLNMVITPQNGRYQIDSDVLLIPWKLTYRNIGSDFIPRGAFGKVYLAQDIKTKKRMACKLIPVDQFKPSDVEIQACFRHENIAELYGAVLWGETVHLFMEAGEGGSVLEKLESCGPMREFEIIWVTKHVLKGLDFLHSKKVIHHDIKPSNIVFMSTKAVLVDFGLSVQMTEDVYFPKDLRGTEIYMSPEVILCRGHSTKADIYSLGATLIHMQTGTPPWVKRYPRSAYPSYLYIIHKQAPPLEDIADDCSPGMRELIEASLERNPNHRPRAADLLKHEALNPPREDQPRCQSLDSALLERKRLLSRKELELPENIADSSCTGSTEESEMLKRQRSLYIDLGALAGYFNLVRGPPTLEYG
LOK/STK10, sequence (O94804 whole entry): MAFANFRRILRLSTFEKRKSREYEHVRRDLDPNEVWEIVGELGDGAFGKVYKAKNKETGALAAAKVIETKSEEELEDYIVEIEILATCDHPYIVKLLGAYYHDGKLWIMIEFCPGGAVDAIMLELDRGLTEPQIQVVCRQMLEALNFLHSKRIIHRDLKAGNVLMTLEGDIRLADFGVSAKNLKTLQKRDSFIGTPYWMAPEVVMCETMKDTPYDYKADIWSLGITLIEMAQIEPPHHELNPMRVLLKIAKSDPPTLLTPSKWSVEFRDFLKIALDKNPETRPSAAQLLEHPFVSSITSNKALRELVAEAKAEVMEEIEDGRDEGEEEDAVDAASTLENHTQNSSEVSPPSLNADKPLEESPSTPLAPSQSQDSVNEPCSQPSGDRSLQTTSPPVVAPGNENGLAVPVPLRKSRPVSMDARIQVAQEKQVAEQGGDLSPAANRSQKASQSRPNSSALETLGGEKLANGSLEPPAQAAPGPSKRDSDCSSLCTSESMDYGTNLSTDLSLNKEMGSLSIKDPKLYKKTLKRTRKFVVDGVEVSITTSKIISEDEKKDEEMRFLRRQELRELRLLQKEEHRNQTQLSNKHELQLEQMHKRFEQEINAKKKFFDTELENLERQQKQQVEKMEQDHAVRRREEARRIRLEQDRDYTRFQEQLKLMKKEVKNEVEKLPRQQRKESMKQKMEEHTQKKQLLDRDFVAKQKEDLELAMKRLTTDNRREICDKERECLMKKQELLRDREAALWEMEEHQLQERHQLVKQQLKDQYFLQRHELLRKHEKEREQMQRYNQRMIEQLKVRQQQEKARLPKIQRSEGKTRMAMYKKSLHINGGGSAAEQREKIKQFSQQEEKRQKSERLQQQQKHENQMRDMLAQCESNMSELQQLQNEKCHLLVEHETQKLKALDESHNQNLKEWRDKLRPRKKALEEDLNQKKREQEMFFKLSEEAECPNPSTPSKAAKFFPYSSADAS
CYP2C19, sequence (P33261 whole entry): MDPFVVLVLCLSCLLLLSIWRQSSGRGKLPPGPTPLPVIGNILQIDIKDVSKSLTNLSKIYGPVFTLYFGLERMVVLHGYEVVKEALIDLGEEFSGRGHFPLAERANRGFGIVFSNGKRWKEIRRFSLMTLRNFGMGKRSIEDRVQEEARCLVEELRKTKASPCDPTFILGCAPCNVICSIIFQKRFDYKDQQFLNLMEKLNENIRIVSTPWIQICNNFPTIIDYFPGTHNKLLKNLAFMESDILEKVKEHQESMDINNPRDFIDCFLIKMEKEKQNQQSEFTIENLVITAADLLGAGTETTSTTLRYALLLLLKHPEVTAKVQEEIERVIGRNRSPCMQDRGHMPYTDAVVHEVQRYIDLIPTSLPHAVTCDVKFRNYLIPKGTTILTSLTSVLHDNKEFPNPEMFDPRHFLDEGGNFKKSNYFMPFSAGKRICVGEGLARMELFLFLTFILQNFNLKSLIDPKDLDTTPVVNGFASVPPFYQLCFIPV

Structure (SMILES): COc1cc(-c2cncc(-c3ccc(N4CCN(C)CC4)cc3)c2C)cc(F)c1C(N)=O [Compound 26a, 2-Fluoro-6-methoxy-4-(4-methyl-5-(4-(4-methylpiperazin-1-yl)phenyl)pyridin-3-yl)benzamide]
- % enzyme activity (BRAF): 28.77%
- remaining activity at 1 µM (BRAF): 28.8%
- % enzyme activity (CK1a1L): 97.55%
- remaining activity at 1 µM (OSR1/OXSR1): 93.4%
- IC50 (CYP2C19): > 50 µM
- % enzyme activity (NEK11): 85.69%
- remaining activity at 1 µM (CAMK2a): 85.5%
- % enzyme activity (MARK2/PAR-1Ba): 91.66%
- % enzyme activity (CDK17/cyclin Y (PCTK2)): 95.45%
- % enzyme activity (HCK): 91.96%
- remaining activity at 1 µM (COT1/MAP3K8): 88.7%
- remaining activity at 1 µM (FGFR2): 95.5%
- remaining activity at 1 µM (LRRK2): 60.1%
- % enzyme activity (LOK/STK10): 51.51%
- remaining activity at 1 µM (HPK1/MAP4K1): 58.7%
- % enzyme activity (CDC7/DBF4): 91.84%
- % enzyme activity (STK38L/NDR2): 98.69%
- remaining activity at 1 µM (CDK8/cyclin C): 84.6%
- % enzyme activity (CLK1): 94.42%

Structure (SMILES): COc1cc(-c2cncc(-c3ccc(N4C[C@@H](C)N(C)[C@@H](C)C4)cc3)c2C)cc(F)c1C(N)=O [Compound 26c, 2-Fluoro-6-methoxy-4-(4-methyl-5-(4-((3R,5S)-3,4,5-trimethylpiperazin-1-yl)phenyl)pyridin-3-yl)benzamide]
- % enzyme activity (BRAF): 40.52%
- remaining activity at 1 µM (BRAF): 41.1%
- % enzyme activity (CK1a1L): 99.15%
- remaining activity at 1 µM (OSR1/OXSR1): 95%
- IC50 (CYP2C19): > 50 µM
- % enzyme activity (NEK11): 87.79%
- remaining activity at 1 µM (CAMK2a): 96.7%
- % enzyme activity (MARK2/PAR-1Ba): 103.03%
- % enzyme activity (CDK17/cyclin Y (PCTK2)): 99.91%
- % enzyme activity (HCK): 88.06%
- remaining activity at 1 µM (COT1/MAP3K8): 92.9%
- remaining activity at 1 µM (FGFR2): 91.9%
- remaining activity at 1 µM (LRRK2): 78.3%
- % enzyme activity (LOK/STK10): 68.53%
- remaining activity at 1 µM (HPK1/MAP4K1): 74.7%
- % enzyme activity (CDC7/DBF4): 93.55%
- % enzyme activity (STK38L/NDR2): 102.97%
- remaining activity at 1 µM (CDK8/cyclin C): 93.1%
- % enzyme activity (CLK1): 86.91%
